Test system: 429239-143-T-J1-PDC complex spheroid viability
Test: Anticancer human tumor 429239-143-T-J1-PDC patient-derived small cell lung carcinoma cell line growth inhibition [POLQ]
Conditions: for IC50: curve of first compound; for viability, T/C: stronger effect = lower value
Outline: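 Patient-derived tumour cells were co-cultured with HUVEC and mesenchymal stem cells as multicellular spheroids at 37 °C. They were treated with POLQ inhibitors (novobiocin, ART-558, RP6685) alone or combined with other agents. Top concentrations were at or near clinical Cmax (otherwise 10 microM; SN-38 at 1 microM), decreasing in half-log steps.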

[1] = second compound 0.0316 µM, first compound 0.0316 µM
[2] = second compound 0.0316 µM, first compound 0.1 µM
[3] = second compound 0.0316 µM, first compound 0.316 µM
[4] = second compound 0.0316 µM, first compound 1 µM
[5] = second compound 0.0316 µM, first compound 3.16 µM
[6] = second compound 0.0316 µM, first compound 10 µM
[7] = second compound 0.1 µM, first compound 0.0316 µM
[8] = second compound 0.1 µM, first compound 0.1 µM
[9] = second compound 0.1 µM, first compound 0.316 µM
[10] = second compound 0.1 µM, first compound 1 µM
[11] = second compound 0.1 µM, first compound 3.16 µM
[12] = second compound 0.1 µM, first compound 10 µM
[13] = second compound 0.316 µM, first compound 0.0316 µM
[14] = second compound 0.316 µM, first compound 0.1 µM
[15] = second compound 0.316 µM, first compound 0.316 µM
[16] = second compound 0.316 µM, first compound 1 µM
[17] = second compound 0.316 µM, first compound 3.16 µM
[18] = second compound 0.316 µM, first compound 10 µM
[19] = second compound 1 µM, first compound 0.0316 µM
[20] = second compound 1 µM, first compound 0.1 µM
[21] = second compound 1 µM, first compound 0.316 µM
[22] = second compound 1 µM, first compound 1 µM
[23] = second compound 1 µM, first compound 3.16 µM
[24] = second compound 1 µM, first compound 10 µM
[25] = second compound 3.16 µM, first compound 0.0316 µM
[26] = second compound 3.16 µM, first compound 0.1 µM
[27] = second compound 3.16 µM, first compound 0.316 µM
[28] = second compound 3.16 µM, first compound 1 µM
[29] = second compound 3.16 µM, first compound 3.16 µM
[30] = second compound 3.16 µM, first compound 10 µM
[31] = second compound 10 µM, first compound 0.0316 µM
[32] = second compound 10 µM, first compound 0.1 µM
[33] = second compound 10 µM, first compound 0.316 µM
[34] = second compound 10 µM, first compound 1 µM
[35] = second compound 10 µM, first compound 3.16 µM
[36] = second compound 10 µM, first compound 10 µM
[37] = second compound 0.0316 µM, first compound 0.00316 µM
[38] = second compound 0.0316 µM, first compound 0.01 µM
[39] = second compound 0.1 µM, first compound 0.00316 µM
[40] = second compound 0.1 µM, first compound 0.01 µM
[41] = second compound 0.316 µM, first compound 0.00316 µM
[42] = second compound 0.316 µM, first compound 0.01 µM
[43] = second compound 1 µM, first compound 0.00316 µM
[44] = second compound 1 µM, first compound 0.01 µM
[45] = second compound 3.16 µM, first compound 0.00316 µM
[46] = second compound 3.16 µM, first compound 0.01 µM
[47] = second compound 10 µM, first compound 0.00316 µM
[48] = second compound 10 µM, first compound 0.01 µM
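Also: luminescence signal used as surrogate measure of viable cells; spheroids exposed to compounds for seven days before readout.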
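For viability, T/C in this document: 100% = DMSO vehicle control viability as luminescence relative to vehicle.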

Structure (SMILES): Nc1ccn(C2OC(CO)C(O)C2(F)F)c(=O)n1 (stereo not drawn) + Nc1ccc(C#CCN(C(=O)Cc2ncc(C(F)(F)F)cc2C(F)(F)F)c2ccc(F)cc2)nn1
- IC50 (second compound 0.0316 µM): 0.0494 µM
- IC50 (second compound 0.1 µM): 0.0499 µM
- IC50 (second compound 0.316 µM): 0.0483 µM
- IC50 (second compound 1 µM): 0.0462 µM
- IC50 (second compound 3.16 µM): 0.0476 µM
- IC50 (second compound 10 µM): 0.0506 µM
- viability, T/C [1]: 77.1%
- viability, T/C [2]: 7.33%
- viability, T/C [3]: 5.99%
- viability, T/C [4]: 6.45%
- viability, T/C [5]: 6.94%
- viability, T/C [6]: 6.48%
- viability, T/C [7]: 77.7%
- viability, T/C [8]: 7.8%
- viability, T/C [9]: 7.04%
- viability, T/C [10]: 5.04%
- viability, T/C [11]: 8.53%
- viability, T/C [12]: 6.25%
- viability, T/C [13]: 75%
- viability, T/C [14]: 7.13%
- viability, T/C [15]: 7.6%
- viability, T/C [16]: 6.15%
- viability, T/C [17]: 6.48%
- viability, T/C [18]: 7.03%
- viability, T/C [19]: 70.9%
- viability, T/C [20]: 7.27%
- viability, T/C [21]: 7.19%
- viability, T/C [22]: 7.47%
- viability, T/C [23]: 6.86%
- viability, T/C [24]: 6.1%
- viability, T/C [25]: 73.6%
- viability, T/C [26]: 7.11%
- viability, T/C [27]: 6.48%
- viability, T/C [28]: 5.97%
- viability, T/C [29]: 6.64%
- viability, T/C [30]: 8.77%
- viability, T/C [31]: 78%
- viability, T/C [32]: 9.42%
- viability, T/C [33]: 7.4%
- viability, T/C [34]: 7.48%
- viability, T/C [35]: 6.25%
- viability, T/C [36]: 7%

Structure (SMILES): C=CCn1c(=O)c2cnc(Nc3ccc(N4CCN(C)CC4)cc3)nc2n1-c1cccc(C(C)(C)O)n1 + Cc1cccc(N(C)C(=O)C2C(O)CCN2c2nc(C)cc(C(F)(F)F)c2C#N)c1
- IC50 (second compound 0.0316 µM): 0.644 µM
- IC50 (second compound 0.1 µM): 0.637 µM
- IC50 (second compound 0.316 µM): 0.593 µM
- IC50 (second compound 1 µM): 0.587 µM
- IC50 (second compound 3.16 µM): 0.609 µM
- IC50 (second compound 10 µM): 0.642 µM
- viability, T/C [37]: 106%
- viability, T/C [38]: 110%
- viability, T/C [1]: 103%
- viability, T/C [2]: 95.1%
- viability, T/C [3]: 103%
- viability, T/C [4]: 17%
- viability, T/C [39]: 105%
- viability, T/C [40]: 105%
- viability, T/C [7]: 97.5%
- viability, T/C [8]: 102%
- viability, T/C [9]: 103%
- viability, T/C [10]: 16.1%
- viability, T/C [41]: 109%
- viability, T/C [42]: 106%
- viability, T/C [13]: 106%
- viability, T/C [14]: 116%
- viability, T/C [15]: 91.1%
- viability, T/C [16]: 16.1%
- viability, T/C [43]: 107%
- viability, T/C [44]: 100%
- viability, T/C [19]: 103%
- viability, T/C [20]: 111%
- viability, T/C [21]: 89.6%
- viability, T/C [22]: 16%
- viability, T/C [45]: 108%
- viability, T/C [46]: 102%
- viability, T/C [25]: 97.7%
- viability, T/C [26]: 111%
- viability, T/C [27]: 93.3%
- viability, T/C [28]: 16.7%
- viability, T/C [47]: 118%
- viability, T/C [48]: 113%
- viability, T/C [31]: 113%
- viability, T/C [32]: 100%
- viability, T/C [33]: 104%
- viability, T/C [34]: 16.6%

Structure (SMILES): CC1COCCN1c1cc(-c2ccnn2C)c2ccnc(-c3ccn[nH]3)c2n1 (stereo not drawn) + COC1C(OC(N)=O)C(O)C(Oc2ccc3c(O)c(NC(=O)c4ccc(O)c(CC=C(C)C)c4)c(=O)oc3c2C)OC1(C)C
- IC50 (second compound 0.0316 µM): 0.0822 µM
- IC50 (second compound 0.1 µM): 0.0767 µM
- IC50 (second compound 0.316 µM): 0.0709 µM
- IC50 (second compound 1 µM): 0.116 µM
- IC50 (second compound 3.16 µM): 0.104 µM
- IC50 (second compound 10 µM): 0.0891 µM
- viability, T/C [1]: 85.1%
- viability, T/C [2]: 40.2%
- viability, T/C [3]: 27.5%
- viability, T/C [4]: 12.9%
- viability, T/C [5]: 10.1%
- viability, T/C [6]: 8.09%
- viability, T/C [7]: 71.9%
- viability, T/C [8]: 42%
- viability, T/C [9]: 28.8%
- viability, T/C [10]: 13.6%
- viability, T/C [11]: 8.87%
- viability, T/C [12]: 10.7%
- viability, T/C [13]: 75.5%
- viability, T/C [14]: 35.2%
- viability, T/C [15]: 28.5%
- viability, T/C [16]: 13.1%
- viability, T/C [17]: 10.9%
- viability, T/C [18]: 9.18%
- viability, T/C [19]: 79.2%
- viability, T/C [20]: 53.4%
- viability, T/C [21]: 27.6%
- viability, T/C [22]: 15.6%
- viability, T/C [23]: 10.5%
- viability, T/C [24]: 10.6%
- viability, T/C [25]: 83.8%
- viability, T/C [26]: 50.1%
- viability, T/C [27]: 29.3%
- viability, T/C [28]: 14.2%
- viability, T/C [29]: 10.6%
- viability, T/C [30]: 9.32%
- viability, T/C [31]: 72.7%
- viability, T/C [32]: 46.7%
- viability, T/C [33]: 28%
- viability, T/C [34]: 13.1%
- viability, T/C [35]: 9.4%
- viability, T/C [36]: 9.29%

Structure (SMILES): Cn1ncnc1[C@H]1c2n[nH]c(=O)c3cc(F)cc(c23)N[C@@H]1c1ccc(F)cc1 + COC1C(OC(N)=O)C(O)C(Oc2ccc3c(O)c(NC(=O)c4ccc(O)c(CC=C(C)C)c4)c(=O)oc3c2C)OC1(C)C
- IC50 (second compound 0.0316 µM): 0.0245 µM
- IC50 (second compound 0.1 µM): 0.0139 µM
- IC50 (second compound 0.316 µM): 0.0234 µM
- IC50 (second compound 1 µM): 0.0154 µM
- IC50 (second compound 3.16 µM): 0.0137 µM
- IC50 (second compound 10 µM): 0.0143 µM
- viability, T/C (second compound 0.0316 µM, first compound 0.000316 µM): 97.7%
- viability, T/C (second compound 0.0316 µM, first compound 0.001 µM): 89.6%
- viability, T/C [37]: 83.6%
- viability, T/C [38]: 62.6%
- viability, T/C [1]: 47%
- viability, T/C [2]: 27.8%
- viability, T/C (second compound 0.1 µM, first compound 0.000316 µM): 104%
- viability, T/C (second compound 0.1 µM, first compound 0.001 µM): 105%
- viability, T/C [39]: 84.6%
- viability, T/C [40]: 51.5%
- viability, T/C [7]: 45.5%
- viability, T/C [8]: 27.8%
- viability, T/C (second compound 0.316 µM, first compound 0.000316 µM): 94.2%
- viability, T/C (second compound 0.316 µM, first compound 0.001 µM): 92.4%
- viability, T/C [41]: 88.7%
- viability, T/C [42]: 64.5%
- viability, T/C [13]: 45.7%
- viability, T/C [14]: 22.8%
- viability, T/C (second compound 1 µM, first compound 0.000316 µM): 98.4%
- viability, T/C (second compound 1 µM, first compound 0.001 µM): 93.5%
- viability, T/C [43]: 82.9%
- viability, T/C [44]: 57.6%
- viability, T/C [19]: 36.8%
- viability, T/C [20]: 25.4%
- viability, T/C (second compound 3.16 µM, first compound 0.000316 µM): 92.1%
- viability, T/C (second compound 3.16 µM, first compound 0.001 µM): 90%
- viability, T/C [45]: 77.7%
- viability, T/C [46]: 58.1%
- viability, T/C [25]: 31.5%
- viability, T/C [26]: 27.8%
- viability, T/C (second compound 10 µM, first compound 0.000316 µM): 89.5%
- viability, T/C (second compound 10 µM, first compound 0.001 µM): 90.9%
- viability, T/C [47]: 78.9%
- viability, T/C [48]: 53.4%
- viability, T/C [31]: 39.6%
- viability, T/C [32]: 25.1%

— PubChem BioAssay AID1963845 (Molecular Pharmacology Branch, DTP, NCI, 2024)
